Laboratory results taken from PubChem BioAssay AID256 (DTP/NCI, 2004).
Where “and” joins values, the source holds several entries; their conditions need not be identical. Equal entries are not always repeated. Toxic doses and inconclusive results are not listed.

Tested on: CD2F1 mice, L1210 leukemia ip, survival T/C
Experiment: NCI In Vivo Anticancer Drug Screen. Data for tumor model L1210 Leukemia (intraperitoneal) in CD2F1 (CDF1) mice
Settings: higher = longer survival
How it was run: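 Each value reflects a quotient of treated over vehicle control outcomes in mice with a transplanted tumor.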

[1] = endpoint: mean survival time, dose: 6.25 mg/kg/injection, schedule: Q01DX009 (ip), vehicle: saline with Tween-80
[2] = endpoint: mean survival time, dose: 12.5 mg/kg/injection, schedule: Q01DX009 (ip), vehicle: saline with Tween-80
[3] = endpoint: mean survival time, dose: 25.0 mg/kg/injection, schedule: Q01DX009 (ip), vehicle: saline with Tween-80
[4] = endpoint: mean survival time, dose: 25.0 mg/kg/injection, schedule: Q04DX003 (ip), vehicle: saline with Tween-80
[5] = endpoint: mean survival time, dose: 100.0 mg/kg/injection, schedule: Q04DX002 (ip), vehicle: saline with Tween-80
[6] = endpoint: mean survival time, dose: 200.0 mg/kg/injection, schedule: Q04DX002 (ip), vehicle: saline with Tween-80
[7] = endpoint: mean survival time, dose: 400.0 mg/kg/injection, schedule: Q04DX002 (ip), vehicle: saline with Tween-80
[8] = endpoint: mean survival time, dose: 100.0 mg/kg/injection, schedule: Q01DX009 (ip), vehicle: saline with Tween-80
[9] = endpoint: mean survival time, dose: 100.0 mg/kg/injection, schedule: Q04DX003 (ip), vehicle: saline with Tween-80
[10] = endpoint: mean survival time, dose: 200.0 mg/kg/injection, schedule: Q01DX009 (ip), vehicle: saline with Tween-80
[11] = endpoint: mean survival time, dose: 200.0 mg/kg/injection, schedule: Q04DX003 (ip), vehicle: saline with Tween-80
[12] = endpoint: mean survival time, dose: 400.0 mg/kg/injection, schedule: Q01DX009 (ip), vehicle: saline with Tween-80
[13] = endpoint: mean survival time, dose: 400.0 mg/kg/injection, schedule: Q04DX003 (ip), vehicle: saline with Tween-80
[14] = endpoint: mean survival time, dose: 100.0 mg/kg/injection, schedule: Q04DX003 (ip), vehicle: saline
[15] = endpoint: mean survival time, dose: 200.0 mg/kg/injection, schedule: Q04DX003 (ip), vehicle: saline
[16] = endpoint: mean survival time, dose: 400.0 mg/kg/injection, schedule: Q04DX003 (ip), vehicle: saline
[17] = endpoint: mean survival time, dose: 100.0 mg/kg/injection, schedule: Q01DX001 (ip), vehicle: saline
[18] = endpoint: mean survival time, dose: 200.0 mg/kg/injection, schedule: Q01DX001 (ip), vehicle: saline
[19] = endpoint: mean survival time, dose: 400.0 mg/kg/injection, schedule: Q01DX001 (ip), vehicle: saline

In the case of C=C1C(=O)C23[C@H](O)C1CC[C@H]2[C@]12COC3(O)[C@@H](O)[C@@H]1C(C)(C)CC[C@@H]2O, the T/C (endpoint: mean survival time, dose: 1.56 mg/kg/injection, schedule: Q01DX009 (ip), vehicle: saline with Tween-80) is reported as 97 % of control and 111 % of control, the T/C (endpoint: mean survival time, dose: 3.12 mg/kg/injection, schedule: Q01DX009 (ip), vehicle: saline with Tween-80) is reported as 102 % of control and 103 % of control and the T/C (endpoint: mean survival time, dose: 4.5 mg/kg/injection, schedule: Q01DX009 (ip), vehicle: Klucel (hydroxypropylcellulose) (HPC)) is reported as 93 % of control and 105 % of control and 107 % of control. For the same molecule, the T/C [1] was 96 % of control and 102 % of control, the T/C (endpoint: mean survival time, dose: 9.0 mg/kg/injection, schedule: Q01DX009 (ip), vehicle: Klucel (hydroxypropylcellulose) (HPC)) was 95 % of control and 97 % of control and the T/C [2] was 97 % of control and 105 % of control. The T/C (endpoint: mean survival time, dose: 18.0 mg/kg/injection, schedule: Q01DX009 (ip), vehicle: Klucel (hydroxypropylcellulose) (HPC)) was 93 % of control and 101 % of control and 107 % of control, the T/C [3] was 102 % of control and 105 % of control and the T/C (endpoint: mean survival time, dose: 36.0 mg/kg/injection, schedule: Q01DX009 (ip), vehicle: Klucel (hydroxypropylcellulose) (HPC)) was 90 % of control and 107 % of control.
In the case of CC1=C(/C=C/C(C)=N/NC(N)=S)C(C)(C)CCC1, the T/C [2] is reported as 106 % of control, the T/C [3] is reported as 115 % of control and the T/C [4] is reported as 98 % of control. For the same molecule, the T/C (endpoint: mean survival time, dose: 50.0 mg/kg/injection, schedule: Q04DX003 (ip), vehicle: saline with Tween-80) was 104 % of control.
For O=C(O)COc1ccc(F)cc1Br, the T/C [5] was 93 % of control, the T/C [6] was 93 % of control and the T/C [7] was 93 % of control.
N#CC/C(=N\Nc1ccc([N+](=O)[O-])cc1[N+](=O)[O-])c1ccccc1 was tested, and the T/C (endpoint: mean survival time, dose: 100.0 mg/kg/injection, schedule: Q04DX003 (ip), vehicle: saline sonified) was 100 % of control, the T/C (endpoint: mean survival time, dose: 200.0 mg/kg/injection, schedule: Q04DX003 (ip), vehicle: saline sonified) was 100 % of control and the T/C (endpoint: mean survival time, dose: 400.0 mg/kg/injection, schedule: Q04DX003 (ip), vehicle: saline sonified) was 97 % of control.
In the case of O=C(Nc1ccc(C2=NCCN2)cc1)c1ccc(NC(=O)c2ccc(C3=NCCN3)cc2)cc1, the T/C (endpoint: median survival time, dose: 30.0 mg/kg/injection, schedule: Q01DX009 (ip), vehicle: saline) is reported as 166 % of control and the T/C (endpoint: median survival time, dose: 60.0 mg/kg/injection, schedule: Q01DX009 (ip), vehicle: saline) is reported as 244 % of control.
In the case of CC(C)C1=CC2=C(CC1)C1(C)CCCC(C)(C(=O)O)C1CC2 (centres undefined), the T/C [8] is reported as 98 % of control, the T/C [9] is reported as 104 % of control and the T/C [10] is reported as 96 % of control. The T/C [11] was 98 % of control, the T/C [12] was 89 % of control and the T/C [13] was 93 % of control.
With CN(C)c1ccc(-c2nnc(-c3ccc(N(C)C)cc3)nn2)cc1 the T/C [9] was 93 % of control, the T/C [11] was 92 % of control and the T/C [13] was 95 % of control.
With O=[N+]([O-])c1ccccc1NCCNCCNc1ccccc1[N+](=O)[O-] the T/C [9] was 113 % of control, the T/C [11] was 98 % of control and the T/C [13] was 98 % of control.
With O=C(c1ccccn1)c1ccccn1 the T/C [14] was 96 % of control, the T/C [15] was 104 % of control and the T/C [16] was 102 % of control.
In the case of CCOP(=O)(OCC)/C(C#N)=C\c1ccc(N(C)C)cc1, the T/C [9] is reported as 101 % of control, the T/C [11] is reported as 95 % of control and the T/C [13] is reported as 98 % of control.
C=CCOc1ccc(Cl)cc1Cl was tested, and the T/C (endpoint: mean survival time, dose: 37.5 mg/kg/injection, schedule: Q01DX009 (ip), vehicle: saline with Tween-80) was 93 % of control, the T/C (endpoint: mean survival time, dose: 75.0 mg/kg/injection, schedule: Q01DX009 (ip), vehicle: saline with Tween-80) was 101 % of control and the T/C (endpoint: mean survival time, dose: 150.0 mg/kg/injection, schedule: Q01DX009 (ip), vehicle: saline with Tween-80) was 97 % of control.
CCOC(=O)Nc1cc2c(c(N)n1)N=C(c1ccc3ccccc3c1)CN2 was tested, and the T/C (endpoint: median survival time, dose: 0.93 mg/kg/injection, schedule: Q01DX009 (ip), vehicle: saline with Tween-80) was 122 % of control, the T/C (endpoint: median survival time, dose: 1.0 mg/kg/injection, schedule: Q01DX009 (ip), vehicle: saline with Tween-80) was 112 % of control and the T/C (endpoint: median survival time, dose: 1.87 mg/kg/injection, schedule: Q01DX009 (ip), vehicle: saline with Tween-80) was 113 % of control. For the same molecule, the T/C (endpoint: median survival time, dose: 3.75 mg/kg/injection, schedule: Q01DX009 (ip), vehicle: saline with Tween-80) was 121 % of control, the T/C (endpoint: median survival time, dose: 15.0 mg/kg/injection, schedule: Q01DX009 (ip), vehicle: saline with Tween-80) was 113 % of control and the T/C (endpoint: median survival time, dose: 16.0 mg/kg/injection, schedule: Q01DX009 (ip), vehicle: saline with Tween-80) was 114 % of control.
In the case of CCOc1ccc(Nc2nc(C(Cl)(Cl)Cl)cc(C(Cl)(Cl)Cl)n2)cc1CN(CC)CC, the T/C [1] is reported as 101 % of control, the T/C (endpoint: mean survival time, dose: 6.25 mg/kg/injection, schedule: Q04DX003 (ip), vehicle: saline with Tween-80) is reported as 97 % of control and the T/C [2] is reported as 100 % of control. The T/C (endpoint: mean survival time, dose: 12.5 mg/kg/injection, schedule: Q04DX003 (ip), vehicle: saline with Tween-80) was 101 % of control, the T/C [3] was 102 % of control and the T/C [4] was 95 % of control.
With CCOC(=O)C1(C(C)CC)SCCCS1 (centres undefined) the T/C [5] was 97 % of control, the T/C [6] was 97 % of control and the T/C [7] was 94 % of control.
In the case of O=C1CC(c2ccccc2)OC(c2ccccc2Cl)C1 (centres undefined), the T/C [9] is reported as 94 % of control, the T/C [11] is reported as 97 % of control and the T/C [13] is reported as 94 % of control.
For OC(Cc1nc(-c2ccccc2)c(-c2ccccc2)s1)(C(F)(F)F)C(F)(F)F, the T/C [8] was 95 % of control, the T/C [9] was 91 % of control and the T/C [10] was 101 % of control. The T/C [11] was 95 % of control, the T/C [12] was 86 % of control and the T/C [13] was 89 % of control.
With COc1c(C2OC(CO)C(O)C2O)nn(C)c1C(N)=O (centres undefined) the T/C (endpoint: median survival time, dose: 48.5 mg/kg/injection, schedule: Q01DX005 (ip), vehicle: saline) was 100 % of control, the T/C (endpoint: median survival time, dose: 97.0 mg/kg/injection, schedule: Q01DX005 (ip), vehicle: saline) was 102 % of control and the T/C (endpoint: median survival time, dose: 193.9 mg/kg/injection, schedule: Q01DX005 (ip), vehicle: saline) was 100 % of control.
S=C1SC2CCCCC2S1 (centres undefined) was tested, and the T/C (endpoint: mean survival time, dose: 100.0 mg/kg/injection, schedule: Q01DX001 (ip), vehicle: Klucel (hydroxypropylcellulose) (HPC)) was 104 % of control, the T/C (endpoint: mean survival time, dose: 200.0 mg/kg/injection, schedule: Q01DX001 (ip), vehicle: Klucel (hydroxypropylcellulose) (HPC)) was 107 % of control and the T/C (endpoint: mean survival time, dose: 400.0 mg/kg/injection, schedule: Q01DX001 (ip), vehicle: Klucel (hydroxypropylcellulose) (HPC)) was 98 % of control.
O=C1CC(NCCO)C(=O)NN1 (centres undefined) was tested, and the T/C [14] was 101 % of control, the T/C [15] was 101 % of control and the T/C [16] was 104 % of control.
In the case of Oc1cc(O)c2c(c1)O[C@H](c1ccc(O)c(O)c1)[C@@H](O)C2, the T/C [17] is reported as 101 % of control, the T/C [18] is reported as 101 % of control and the T/C [19] is reported as 98 % of control.
In the case of CC(=O)CCCOC(C)=O, the T/C [17] is reported as 103 % of control, the T/C [18] is reported as 100 % of control and the T/C [19] is reported as 100 % of control.
In the case of O=S(=O)(CCCl)c1ccc(Cl)cc1, the T/C [5] is reported as 96 % of control and the T/C [6] is reported as 101 % of control.
For CCC12OC3(CC)C4C(=O)OC1C1(CC)OC4(CC)C3C(=O)OC21, the T/C [17] was 103 % of control, the T/C [14] was 102 % of control and the T/C [18] was 102 % of control. For the same molecule, the T/C [15] was 100 % of control, the T/C [19] was 96 % of control and the T/C [16] was 94 % of control.
In the case of N#CCC(=O)NN, the T/C [14] is reported as 103 % of control and the T/C [15] is reported as 108 % of control.
O=C(Nc1nccs1)Nc1cc([N+](=O)[O-])ccc1F was tested, and the T/C (endpoint: mean survival time, dose: 50.0 mg/kg/injection, schedule: Q01DX009 (ip), vehicle: Klucel (hydroxypropylcellulose) (HPC)) was 104 % of control, the T/C (endpoint: mean survival time, dose: 100.0 mg/kg/injection, schedule: Q01DX009 (ip), vehicle: Klucel (hydroxypropylcellulose) (HPC)) was 96 % of control and the T/C (endpoint: mean survival time, dose: 200.0 mg/kg/injection, schedule: Q01DX009 (ip), vehicle: Klucel (hydroxypropylcellulose) (HPC)) was 93 % of control.
For O=[P+](O)O[P+](=O)O.O=[P+](O)O[P+](=O)O.O=[P+](O)O[P+](=O)O.O=[P+](O)O[P+](=O)O.[Pt].[Pt], the T/C (endpoint: median survival time, dose: 3.12 mg/kg/injection, schedule: Q04DX003 (ip), vehicle: saline) was 98 % of control, the T/C (endpoint: median survival time, dose: 6.25 mg/kg/injection, schedule: Q04DX003 (ip), vehicle: saline) was 98 % of control and the T/C (endpoint: median survival time, dose: 12.5 mg/kg/injection, schedule: Q04DX003 (ip), vehicle: saline) was 96 % of control. The T/C (endpoint: median survival time, dose: 25.0 mg/kg/injection, schedule: Q04DX003 (ip), vehicle: saline) was 98 % of control and the T/C (endpoint: median survival time, dose: 50.0 mg/kg/injection, schedule: Q04DX003 (ip), vehicle: saline) was 105 % of control.
